Data from US7122549B2, “Saframycins, analogues and uses thereof” (President and Fellows of Harvard College, priority 2000, dated 2006).
Like-named read-outs stand apart in the source and are kept apart here.

Legend:
A375 malignant melanoma = test: Cell Growth Inhibition Assay (MTS, CellTiter 96 AQueous); format: cell-based
Method: (§1) The two cell lines used, A375 malignant melanoma and A-549 lung carcinoma, were purchased from American Type Culture Collection. These cells were cultured at 37° C. in a humidified atmosphere of 5% CO2 in Dulbecco's Modified Eagle Medium (DMEM) supplemented with 10% fetal bovine serum (FBS), 0.1% glutamine and 0.1% penicillin-streptomycin. DMEM, FBS, glutamine and penicillin-streptomycin were purchased from Life Technologies (Grand Island, N.Y.).
(§2) Exponentially growing cells were seeded at ˜3000 (50 μl) cells per well in 96-well flat-bottomed microtiter plates and then incubated at 37° C. in a humidified atmosphere of 5% CO2/95% air for 24 hr. An analogue was dissolved in dimethyl sulfoxide to give a concentration of 0.6 mg/ml, which was further diluted with the culture medium containing 10% fetal bovine serum. Nine three-fold dilutions were prepared with the maximum concentration being 1/300 of the original DMSO solution (i.e. 2000 ng/ml). This procedure was repeated for each analogue. Fifty microliters of the obtained dilutions were each transferred into the well of the above described culture plate. The cell culture was then placed back into the incubator at 37° C. under the 5% CO2 atmosphere for 72 hr. Cell proliferation was quantified by using the CellTiter 96 AQueous Assay (Promega). In this assay a mixture solution (20 μl) of MTS [Owen's reagent: 3-(4,5-dimethylthiazol-2-yl)-5-(3-carbomethoxyphenyl)-2-(4-sulfophenyl)-2H-tetrazolium inner salt] and phenazine methosulfate (PMS) was added to each well. The resulting mixtures were further incubated for 2.5 hr. The absorbance was measured with a microplate reader at a test wavelength of 540 nm and a reference wavelength of 655 nm to serve as an index of the number of viable cells. The inhibitory ratio of the test compound was calculated according to the following formula: inhibition ratio (%)=100×(C−T)/C, where T is an absorbance of the well containing a test compound and C is an absorbance of the well containing no test compound. The IC50 was calculated by the least squares method.

A-549 lung carcinoma = test: as above; format: cell-based
Method: as §1, §2

[1] = Homo sapiens, A-375, Table 1, A375 cells, 72 hr with compound, MTS readout, read-out: IC50, nM A375
[2] = Homo sapiens, Table 1, A549 cells, 72 hr with compound, MTS readout, read-out: IC50, nM A549
[3] = Homo sapiens, A-375, 72 h, read-out: IC50, nM A375
[4] = Homo sapiens, A549, 72 h, read-out: IC50, nM A549
[5] = Homo sapiens, A-375, Table 2, A375 cells, 72 hr with compound, MTS readout, read-out: IC50 (nM) Cell line A375-Melanoma
[6] = Homo sapiens, Table 2, A549 cells, 72 hr with compound, MTS readout, read-out: IC50 (nM) Cell line A549-Lung
[7] = Homo sapiens, A-375, Table 3, A375 cells, 72 hr with compound, MTS readout, read-out: IC50 (nM) Cell line A375-Melanoma
[8] = Homo sapiens, Table 3, A549 cells, 72 hr with compound, MTS readout, read-out: IC50 (nM) Cell line A549-Lung

IC50 (A375 malignant melanoma; [1])	IC50 (A-549 lung carcinoma; [2])	SMILES	further results
4.5 nM	160 nM	CC(=O)C(N)=O	
330 nM	1100 nM	NCc1ccccc1	
260 nM	700 nM	NCc1ccccn1	
13 nM	290 nM	NC(=O)c1ccco1	
		NC(=O)Cc1ccccc1	IC50 (A375 malignant melanoma; [3]): 34 nM; IC50 (A-549 lung carcinoma; [4]): 1200 nM
2.4 nM	39 nM	NC(=O)C(=O)Cc1ccccc1	
		NC(=O)OCc1ccccc1	IC50 (A375 malignant melanoma; [3]): 3.9 nM; IC50 (A-549 lung carcinoma; [4]): 50 nM
		COc1ccc(OC(N)=O)cc1	IC50 (A375 malignant melanoma; [3]): 3.4 nM; IC50 (A-549 lung carcinoma; [4]): 96 nM
37 nM	890 nM	NC(=O)Nc1ccccc1	
81 nM	860 nM	Cc1ccc(S(N)(=O)=O)cc1	
1.2 nM	11.3 nM	NC(=O)c1ncccc1O	
1.2 nM	6.5 nM	Cc1ccc(C(N)=O)c(O)c1	
4.1 nM	99 nM	COc1cccc(C(N)=O)c1	
12 nM	395 nM	NC(=O)c1c(F)cccc1F	
14 nM	390 nM	COc1cc(C(N)=O)cc(OC)c1OC	
8.5 nM	100 nM	NC(=O)c1c(F)c(F)c(F)c(F)c1F	
3.3 nM	40 nM	NC(=O)c1ccccn1	
4.4 nM	100 nM	NC(=O)c1cnccn1	
2.7 nM	31 nM	NC(=O)c1cc2ccccc2[nH]1	
76 nM	1200 nM	NC(=O)c1c[nH]c2ccccc12	
85 nM	1100 nM	NC(=O)c1cccc2[nH]ccc12	
2.5 nM	26 nM	NC(=O)c1cc2cc(F)ccc2[nH]1	
		NC(=O)C(=O)c1c[nH]c2ccccc12	IC50 (A375 malignant melanoma; [3]): 9.6 nM; IC50 (A-549 lung carcinoma; [4]): 110 nM

IC50 (A375 malignant melanoma; [1])	IC50 (A-549 lung carcinoma; [2])	SMILES	further results
96 nM	1100 nM	NC(=O)[C@H](Cc1c[nH]c2ccccc12)NC(=O)OCc1ccccc1	
310 nM	> 1400 nM	NC(=O)[C@@H](N)Cc1c[nH]c2ccccc12	
1.7 nM	9.2 nM	O=C1NC(=O)c2ccccc21	
> 510 nM	> 510 nM	O=C1NC(=O)c2ncccc21	
2.9 nM	44 nM	NC(=O)/C=C/c1ccccc1	
43 nM	390 nM	NC(=O)c1cccc2ccccc12	
2.5 nM	32 nM	NC(=O)c1nccc2ccccc12	
23 nM	320 nM	NC(=O)c1c(O)ccc2ccccc12	
9.2 nM	25 nM	NC(=O)c1ncc(Br)c2ccccc12	
1.4 nM	4.6 nM	Cc1ccc2ccc(C(N)=O)nc2c1	
7.5 nM	42 nM	NC(=O)c1cc(O)c2ccc(Cl)cc2n1	
13 nM	74 nM	NC(=O)c1cc(O)c2cc(Cl)ccc2n1	
1.2 nM	4.7 nM	NC(=O)c1cnc2ccccc2n1	
8.3 nM	200 nM	NC(=O)[C@@H]1Cc2ccccc2CN1	
3440 nM		NC(=O)C1NCCc2ccccc21 (stereo not shown)	
		COc1c(C)c(OC)c2c(c1O)[C@@H]1[C@@H]3Cc4c(OC)c(C)c(OC)c(O)c4[C@H](CNC(=O)OCC4c5ccccc5-c5ccccc54)N3[C@@H](C#N)C(C2)N1C	IC50 (A375 malignant melanoma; [5]): 35 nM; IC50 (A-549 lung carcinoma; [6]): 176 nM
		CCCCC[C@H]1c2c(O)c(OC)c(C)c(OC)c2C[C@H]2[C@H]3c4c(O)c(OC)c(C)c(OC)c4C[C@@H]([C@H](C#N)N12)N3C	IC50 (A375 malignant melanoma; [5]): 116 nM; IC50 (A-549 lung carcinoma; [6]): 1400 nM
		COc1c(C)c(OC)c2c(c1O)[C@@H]1[C@@H]3Cc4c(OC)c(C)c(OC)c(O)c4[C@H](CNC(=O)c4ccc5cc(OCCCCN)ccc5n4)N3[C@@H](C#N)[C@H](C2)N1C	IC50 (A375 malignant melanoma; [5]): 29 nM; IC50 (A-549 lung carcinoma; [6]): 118 nM
		COc1c(C)c(OC)c2c(c1O)[C@@H]1[C@@H]3Cc4c(OC)c(C)c(OC)c(O)c4[C@H](CNC(=O)c4ccc5cc(OCCCCNC(=O)CCCCCNC(=O)CCCCCNC(=O)CCCC[C@@H]6SC[C@@H]7NC(=O)N[C@@H]76)ccc5n4)N3[C@@H](C#N)[C@H](C2)N1C [Biotinylated derivative, Biotinylated Quinalascidin Analog 1]	IC50 (A375 malignant melanoma; Homo sapiens, A-375, 72 h, read-out: IC50 (nM) Cell line A375-Melanoma): 210 nM; IC50 (A-549 lung carcinoma; Homo sapiens, A549, 72 h, read-out: IC50 (nM) Cell line A549-Lung): 990 nM
		COC1=C(C)C(=O)C2=C(C1=O)[C@@H]1[C@@H]3CC4=C(C(=O)C(OC)=C(C)C4=O)[C@H](CNC(=O)C(C)=O)N3[C@@H](C#N)[C@H](C2)N1C [Saframycin A, (−)-Saframycin A, reference compound]	IC50 (A375 malignant melanoma; Table 1, A375 cells, 72 hr with compound, MTS readout, read-out: IC50, nM A375): 5.3 nM; IC50 (A-549 lung carcinoma; Table 1, A549 cells, 72 hr with compound, MTS readout, read-out: IC50, nM A549): 133 nM
		COc1c(C)c(OC)c2c(c1O)[C@@H]1[C@@H]3Cc4c(OC)c(C)c(OC)c(O)c4[C@H](CNC(=O)c4ccc5ccccc5n4)N3C[C@H](C2)N1C [drawing 172 X = H, Reduced quinalascidin analog]	IC50 (A375 malignant melanoma; [7]): > 9000 nM; IC50 (A-549 lung carcinoma; [8]): > 9000 nM
		COc1c(C)c(OC)c2c(c1O)[C@@H]1[C@@H]3Cc4c(OC)c(C)c(OC)c(O)c4[C@H](CNC(=O)c4ccc5ccccc5n4)N3[C@@H](OC)[C@H](C2)N1C [drawing 172 X = OCH3, Methoxy derivative]	IC50 (A375 malignant melanoma; [7]): 120 nM; IC50 (A-549 lung carcinoma; [8]): 1100 nM
		COc1c(C)c(OC)c2c(c1O)[C@@H]1[C@@H]3Cc4c(OC)c(C)c(OC)c(O)c4[C@H](CNC(=O)c4ccc5ccccc5n4)N3[C@@H](O)[C@H](C2)N1C [drawing 172 X = OH, Hemiaminal derivative]	IC50 (A375 malignant melanoma; [7]): 0.9 nM; IC50 (A-549 lung carcinoma; [8]): 13 nM

SMILES	IC50 (A375 malignant melanoma; [1])	IC50 (A-549 lung carcinoma; [2])	further results
COc1c(C)c(OC)c2c(c1O)[C@@H]1[C@@H]3Cc4c(OC)c(C)c(OC)c(O)c4[C@H](CN(Cc4ccccn4)Cc4ccccn4)N3[C@@H](C#N)[C@H](C2)N1C [N-(Pyr)2, bis-2-Pyridyl Derivative]	> 1400 nM	> 1400 nM	
COc1c(C)c(OC)c2c(c1O)[C@@H]1[C@@H]3Cc4c(OC)c(C)c(OC)c(O)c4[C@H](CNC(=O)c4ccccc4F)N3[C@@H](C#N)[C@H](C2)N1C [drawing 136 R = F, 2-Fluorobenzamide derivative]	2.5 nM	37 nM	
COc1c(C)c(OC)c2c(c1O)[C@@H]1[C@@H]3Cc4c(OC)c(C)c(OC)c(O)c4[C@H](CNC(=O)c4ccccc4)N3[C@@H](C#N)[C@H](C2)N1C [drawing 136 R = H, Benzamide derivative]	4.1 nM	91 nM	
COc1c(C)c(OC)c2c(c1O)[C@@H]1[C@@H]3Cc4c(OC)c(C)c(OC)c(O)c4[C@H](CNC(=O)c4ccccc4-c4ccccc4)N3[C@@H](C#N)[C@H](C2)N1C [drawing 136 R = Phenyl, Biphenyl-2-carboxylic acid amide derivative]	34 nM	330 nM	
COc1c(C)c(OC)c2c(c1O)[C@@H]1[C@@H]3Cc4c(OC)c(C)c(OC)c(O)c4[C@H](CNC(=O)c4ccc5ccccc5n4)N3[C@@H](C#N)[C@H](C2)N1C [drawing 160 R = H (11), Quinoline-2-carboxylic acid amide derivative]	1.3 nM	4.4 nM	
COc1c(C)c(OC)c2c(c1O)[C@@H]1[C@@H]3Cc4c(OC)c(C)c(OC)c(O)c4[C@H](CNC(=O)c4ccc5cc(Cl)ccc5n4)N3[C@@H](C#N)[C@H](C2)N1C [drawing 162 R = Cl (14), 6-Chloroquinoline-2-carboxylic acid amide derivative]	1.5 nM	4.1 nM	
